Data on 28 compounds can be found in ChEMBL document CHEMBL5096206, “From natural products to HDAC inhibitors: An overview of drug discovery and design strategy” (Bioorg Med Chem, 2021).

Series [1] concerns the target T1, Histone deacetylase 4 (Homo sapiens, UniProt P56524). As to the kind of experiment: Inhibition of HDAC4 in human HeLa cells incubated for 1 hr by mass spectrometry method. In kind it is cell-based.
A short description of series [2]: Inhibition of HDAC in Sprague-Dawley rat hepatocytes using Fluor de Lys as substrate incubated for 15 mins by fluorometric assay. The class given is cell-based. The following applies: Hepatocyte, 0.25 h.
Series [3] concerns MCF7. As to the kind of experiment: cells. The note with it: Homo sapiens, MCF7, 72 h.
Description: Antiproliferative activity against human MCF7 cells assessed as cell growth inhibition measured after 72 hrs by MTT assay
Series [4] has as its system HepG2. As to the kind of experiment: cells. The following applies: Homo sapiens, HepG2, 72 h.
Description: Antiproliferative activity against human HepG2 cells assessed as cell growth inhibition measured after 72 hrs by MTT assay
Another series relates to P388. As to the kind of experiment: Cytotoxicity against mouse P388 cells assessed as cell growth inhibition. The class given is functional, cell-based.
For the next series, the system named is MCF10. As to the kind of experiment: Antiproliferative activity against human MCF10 cells assessed as cell growth inhibition. In kind it is functional, cell-based.
Another series relates to AGS. As to the kind of experiment: Antiproliferative activity against human AGS cells assessed as cell growth inhibition. The class given is functional, cell-based.
For series [5], the system named is HepG2. The series is described as follows: Antiproliferative activity against human HepG2 cells assessed as cell growth inhibition. In kind it is functional, cell-based.
A further series relates to Hep 3B2. The series is described as follows: Antiproliferative activity against human Hep3B cells assessed as cell growth inhibition. The class given is functional, cell-based.
In another series the test system is Huh-7. As to the kind of experiment: Antiproliferative activity against human Huh-7 cells assessed as cell growth inhibition. The class given is functional, cell-based.
In another series the test system is HA22T cell line. The series is described as follows: Antiproliferative activity against human HA22T cell line assessed as cell growth inhibition. The class given is functional, cell-based.
A short description of series [6]: Cytotoxicity against human CCD-18Co assessed as cell growth inhibition. In kind it is toxicity, cell-based. The note with it: CCD-18Co cells.
The test system of series [7] is MCF7. As to the kind of experiment: cells. The following applies: Homo sapiens.
Series [8] has as its target T2, Histone deacetylase 1 (Homo sapiens, UniProt Q13547). As to the kind of experiment: Inhibition of recombinant HDAC1 (unknown origin) using AMC-K(Ac)GL as substrate by fluorescence based analysis.
The target of series [9] is T3, Protein deacetylase HDAC6 (Homo sapiens, UniProt Q9UBN7). The series is described as follows: Inhibition of recombinant HDAC6 (unknown origin) using AMC-K(Ac)GL as substrate by fluorescence based analysis.
For a further series, the system named is HT-29. As to the kind of experiment: Inhibition of colony formation in human HT-29 cells at 0.5 to 5 uM measured after 10 days by methylene blue staining based analysis relative to control. In kind it is functional. The note with it: dose 0.5-5 µM, time 10 day.
The subject of series [10] is T47D. The series is described as follows: Antiproliferative activity against human T47D cells assessed as cell growth inhibition by burton method. The class given is functional, cell-based.
A further series concerns BT-474. The series is described as follows: Antiproliferative activity against human BT-474 cells assessed as cell growth inhibition by SRB assay. The class given is functional, cell-based.
In series [11] the test system is MCF7. As to the kind of experiment: cells. The following applies: Homo sapiens. This is another data set of the same source.
Description: Antiproliferative activity against human MCF7 cells assessed as cell growth inhibition by SRB assay
Series [12] deals with T2, Histone deacetylase 1. As to the kind of experiment: Inhibition of human recombinant His-tagged HDAC1 expressed in baculovirus expression system incubated for 2 hrs by fluorescence based analysis.
For series [13], the target named is T4, Histone deacetylase 2 (Homo sapiens, UniProt Q92769). The series is described as follows: Inhibition of human recombinant full-length His-tagged HDAC2 expressed in baculovirus expression system incubated for 2 hrs by fluorescence based analysis.
For another series, the target named is Histone deacetylase 3 (Homo sapiens, UniProt O15379). The series is described as follows: Inhibition of human recombinant His-tagged HDAC3 expressed in baculovirus expression system incubated for 2 hrs by fluorescence based analysis.
Another series deals with Histone deacetylase 8 (Homo sapiens, UniProt Q9BY41). The series is described as follows: Inhibition of human recombinant His-tagged HDAC8 expressed in Escherichia coli incubated for 2 hrs by fluorescence based analysis.
In a further series the test system is MDA-MB-231. The series is described as follows: Antiproliferative activity against human MDA-MB-231 cells assessed as cell growth inhibition. The class given is functional, cell-based.
Series [14] relates to T47D. The series is described as follows: Antiproliferative activity against human T47D cells assessed as cell growth inhibition. The class given is functional, cell-based.
The subject of a further series is BT-20. The series is described as follows: Antiproliferative activity against human BT-20 cells assessed as cell growth inhibition. In kind it is functional, cell-based.
In a further series the target is Tubulin beta. As to the kind of experiment: Inhibition of beta-tubulin polymerization in human MCF7 cells using TMB as substrate incubated for 2 hrs by spectrophotometry analysis. The class given is cell-based.
Series [15] addresses T2, Histone deacetylase 1. The series is described as follows: Inhibition of HDAC1 in human MCF7 cells using TMB as substrate incubated for 2 hrs by ELISA analysis. The class given is cell-based.
Series [16] addresses T4, Histone deacetylase 2. As to the kind of experiment: Inhibition of HDAC2 in human MCF7 cells using TMB as substrate incubated for 2 hrs by ELISA analysis. In kind it is cell-based.
The target of series [17] is T2, Histone deacetylase 1. As to the kind of experiment: Inhibition of HDAC1 (unknown origin).
Series [18] is described as follows: Half life in mouse. The class given is ADME, organism-based. The note with it: in vivo.
For series [19], the target named is T1, Histone deacetylase 4. The series is described as follows: Inhibition of HDAC4 (unknown origin).
Another series addresses Histone deacetylase 5 (Homo sapiens, UniProt Q9UQL6). As to the kind of experiment: Inhibition of HDAC5 (unknown origin).
The target of series [20] is T3, Protein deacetylase HDAC6. The series is described as follows: Inhibition of HDAC6 (unknown origin).

Each structure is given as a SMILES string. Values after ≈ are worked out from the molar mass of the structure shown.

T1 sequence (P56524 whole entry): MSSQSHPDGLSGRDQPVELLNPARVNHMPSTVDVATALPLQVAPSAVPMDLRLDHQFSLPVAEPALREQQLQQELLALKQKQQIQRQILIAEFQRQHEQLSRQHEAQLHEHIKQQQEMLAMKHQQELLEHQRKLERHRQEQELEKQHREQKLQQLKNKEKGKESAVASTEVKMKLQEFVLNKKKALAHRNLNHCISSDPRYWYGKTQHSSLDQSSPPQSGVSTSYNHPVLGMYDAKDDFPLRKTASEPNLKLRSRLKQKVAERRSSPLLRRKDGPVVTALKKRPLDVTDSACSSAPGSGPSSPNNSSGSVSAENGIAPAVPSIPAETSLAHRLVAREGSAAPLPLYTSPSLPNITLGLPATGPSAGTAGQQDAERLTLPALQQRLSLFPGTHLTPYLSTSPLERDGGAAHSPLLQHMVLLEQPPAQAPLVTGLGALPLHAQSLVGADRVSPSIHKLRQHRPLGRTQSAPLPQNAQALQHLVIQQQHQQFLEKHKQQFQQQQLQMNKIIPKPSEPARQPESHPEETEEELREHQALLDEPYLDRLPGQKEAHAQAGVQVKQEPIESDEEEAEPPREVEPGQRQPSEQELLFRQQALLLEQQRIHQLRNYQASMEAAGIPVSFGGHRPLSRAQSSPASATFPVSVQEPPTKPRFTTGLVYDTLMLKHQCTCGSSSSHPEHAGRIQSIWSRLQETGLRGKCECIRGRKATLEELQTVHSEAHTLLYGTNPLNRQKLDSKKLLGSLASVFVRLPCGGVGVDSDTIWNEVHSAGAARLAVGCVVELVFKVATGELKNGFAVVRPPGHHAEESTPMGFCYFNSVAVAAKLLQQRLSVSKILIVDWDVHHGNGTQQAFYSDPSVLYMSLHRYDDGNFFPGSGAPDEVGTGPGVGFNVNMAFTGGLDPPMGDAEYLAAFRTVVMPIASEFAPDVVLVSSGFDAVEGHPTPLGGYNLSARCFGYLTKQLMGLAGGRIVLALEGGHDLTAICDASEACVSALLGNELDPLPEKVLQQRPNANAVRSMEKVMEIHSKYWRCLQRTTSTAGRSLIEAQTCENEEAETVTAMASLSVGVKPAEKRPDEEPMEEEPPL
T2 sequence (Q13547 whole entry): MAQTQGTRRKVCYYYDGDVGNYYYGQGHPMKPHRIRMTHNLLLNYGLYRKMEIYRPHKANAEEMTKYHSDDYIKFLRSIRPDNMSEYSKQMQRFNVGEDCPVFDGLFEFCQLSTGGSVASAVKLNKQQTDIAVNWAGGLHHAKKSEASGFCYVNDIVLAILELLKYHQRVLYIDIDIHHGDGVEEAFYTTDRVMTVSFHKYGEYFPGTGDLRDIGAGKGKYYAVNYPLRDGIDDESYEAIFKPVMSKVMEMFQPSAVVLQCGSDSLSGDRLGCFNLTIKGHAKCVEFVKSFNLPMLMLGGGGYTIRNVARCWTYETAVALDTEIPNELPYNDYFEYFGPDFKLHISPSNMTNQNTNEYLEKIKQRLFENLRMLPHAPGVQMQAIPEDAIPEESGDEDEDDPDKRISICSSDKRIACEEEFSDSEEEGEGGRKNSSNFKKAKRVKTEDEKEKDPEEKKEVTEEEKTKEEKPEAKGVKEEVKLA
T3 sequence (Q9UBN7 whole entry): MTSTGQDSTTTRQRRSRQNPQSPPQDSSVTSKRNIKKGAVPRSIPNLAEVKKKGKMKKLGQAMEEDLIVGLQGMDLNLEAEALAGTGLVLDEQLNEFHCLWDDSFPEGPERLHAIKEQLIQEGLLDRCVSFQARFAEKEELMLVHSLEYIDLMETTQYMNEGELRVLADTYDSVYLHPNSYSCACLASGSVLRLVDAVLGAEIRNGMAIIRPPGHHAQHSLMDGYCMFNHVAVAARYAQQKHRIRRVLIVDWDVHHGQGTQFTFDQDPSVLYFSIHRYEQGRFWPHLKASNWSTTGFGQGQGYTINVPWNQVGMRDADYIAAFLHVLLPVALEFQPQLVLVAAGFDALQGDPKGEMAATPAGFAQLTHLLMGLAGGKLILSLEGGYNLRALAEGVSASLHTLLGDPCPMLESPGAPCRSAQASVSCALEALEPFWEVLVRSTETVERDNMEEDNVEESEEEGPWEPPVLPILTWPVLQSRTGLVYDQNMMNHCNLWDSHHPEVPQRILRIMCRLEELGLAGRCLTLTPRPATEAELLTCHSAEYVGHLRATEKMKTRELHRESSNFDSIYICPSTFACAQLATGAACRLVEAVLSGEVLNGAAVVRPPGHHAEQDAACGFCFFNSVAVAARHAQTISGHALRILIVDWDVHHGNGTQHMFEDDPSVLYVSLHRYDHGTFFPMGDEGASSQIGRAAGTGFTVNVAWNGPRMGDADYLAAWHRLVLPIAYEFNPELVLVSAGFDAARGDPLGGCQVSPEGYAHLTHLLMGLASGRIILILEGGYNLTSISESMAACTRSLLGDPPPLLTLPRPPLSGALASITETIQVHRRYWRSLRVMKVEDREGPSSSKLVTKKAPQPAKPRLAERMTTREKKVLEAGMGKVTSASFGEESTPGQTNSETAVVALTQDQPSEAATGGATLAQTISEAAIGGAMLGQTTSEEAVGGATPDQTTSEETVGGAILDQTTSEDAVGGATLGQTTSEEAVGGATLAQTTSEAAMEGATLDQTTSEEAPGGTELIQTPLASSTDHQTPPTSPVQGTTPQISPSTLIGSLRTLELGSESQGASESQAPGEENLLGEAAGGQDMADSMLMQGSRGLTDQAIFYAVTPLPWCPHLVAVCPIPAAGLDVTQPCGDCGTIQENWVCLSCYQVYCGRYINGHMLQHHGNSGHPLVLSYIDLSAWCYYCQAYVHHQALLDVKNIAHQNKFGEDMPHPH
T4 sequence (Q92769 whole entry): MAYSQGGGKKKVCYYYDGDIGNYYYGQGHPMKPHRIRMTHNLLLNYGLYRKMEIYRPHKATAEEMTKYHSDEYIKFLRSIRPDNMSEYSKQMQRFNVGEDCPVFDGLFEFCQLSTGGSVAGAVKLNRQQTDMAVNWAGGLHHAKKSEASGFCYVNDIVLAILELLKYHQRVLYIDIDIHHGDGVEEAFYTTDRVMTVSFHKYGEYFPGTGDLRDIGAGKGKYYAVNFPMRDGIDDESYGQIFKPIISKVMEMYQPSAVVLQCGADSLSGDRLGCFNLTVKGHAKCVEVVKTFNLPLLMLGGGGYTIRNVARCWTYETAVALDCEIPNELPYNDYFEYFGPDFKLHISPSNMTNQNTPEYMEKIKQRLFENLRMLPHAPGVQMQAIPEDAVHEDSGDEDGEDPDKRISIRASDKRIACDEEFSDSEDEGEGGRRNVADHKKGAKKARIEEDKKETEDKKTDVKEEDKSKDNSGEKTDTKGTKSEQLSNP
Histone deacetylase 5, sequence (Q9UQL6 whole entry): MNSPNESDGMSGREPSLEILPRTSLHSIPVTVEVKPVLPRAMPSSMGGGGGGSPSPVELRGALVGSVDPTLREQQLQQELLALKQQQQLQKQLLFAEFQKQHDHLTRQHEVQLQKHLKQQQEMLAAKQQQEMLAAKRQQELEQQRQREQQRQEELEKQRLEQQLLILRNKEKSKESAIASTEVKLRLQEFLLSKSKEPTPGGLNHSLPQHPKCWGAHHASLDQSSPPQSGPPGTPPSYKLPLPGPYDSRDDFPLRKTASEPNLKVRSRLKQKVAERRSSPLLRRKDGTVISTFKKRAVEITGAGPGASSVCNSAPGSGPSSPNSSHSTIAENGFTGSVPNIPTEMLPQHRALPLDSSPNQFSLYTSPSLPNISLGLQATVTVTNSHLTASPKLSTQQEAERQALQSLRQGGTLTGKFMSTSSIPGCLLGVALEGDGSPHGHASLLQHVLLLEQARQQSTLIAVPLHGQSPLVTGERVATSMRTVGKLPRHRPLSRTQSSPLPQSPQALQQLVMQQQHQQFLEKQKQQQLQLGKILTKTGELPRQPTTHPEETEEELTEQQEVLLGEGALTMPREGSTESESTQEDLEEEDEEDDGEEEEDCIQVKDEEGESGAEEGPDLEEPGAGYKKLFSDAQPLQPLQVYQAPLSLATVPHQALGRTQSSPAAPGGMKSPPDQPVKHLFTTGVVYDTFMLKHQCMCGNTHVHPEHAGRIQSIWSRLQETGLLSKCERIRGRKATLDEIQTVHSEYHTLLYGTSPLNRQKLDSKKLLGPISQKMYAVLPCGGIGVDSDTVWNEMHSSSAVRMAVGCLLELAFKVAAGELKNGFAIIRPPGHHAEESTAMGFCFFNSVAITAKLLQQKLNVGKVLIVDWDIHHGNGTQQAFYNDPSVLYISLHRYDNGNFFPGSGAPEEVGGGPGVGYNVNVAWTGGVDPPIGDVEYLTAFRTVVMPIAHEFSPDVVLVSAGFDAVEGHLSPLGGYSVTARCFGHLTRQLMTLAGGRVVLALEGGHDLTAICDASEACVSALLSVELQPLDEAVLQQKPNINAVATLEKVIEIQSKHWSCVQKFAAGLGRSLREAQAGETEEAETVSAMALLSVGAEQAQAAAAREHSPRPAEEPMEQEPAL
Histone deacetylase 8, sequence (Q9BY41 whole entry): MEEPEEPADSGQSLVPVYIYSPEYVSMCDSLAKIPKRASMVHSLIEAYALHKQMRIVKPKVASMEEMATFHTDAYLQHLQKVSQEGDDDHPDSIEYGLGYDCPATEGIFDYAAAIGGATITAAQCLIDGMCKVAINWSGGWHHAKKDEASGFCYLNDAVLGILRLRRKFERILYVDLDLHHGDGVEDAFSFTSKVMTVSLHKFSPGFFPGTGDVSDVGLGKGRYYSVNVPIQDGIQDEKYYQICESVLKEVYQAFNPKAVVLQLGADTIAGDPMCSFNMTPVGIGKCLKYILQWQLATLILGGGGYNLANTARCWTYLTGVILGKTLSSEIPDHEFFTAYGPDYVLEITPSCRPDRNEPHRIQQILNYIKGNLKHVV

In turn, `C[C@@H](O)C(=O)CCCCC[C@@H]1NC(=O)[C@H]2CCCN2C(=O)[C@H](Cc2ccccc2)NC(=O)C(C)(C)NC1=O` gave an IC50 on Histone deacetylase 4 [1] of 0.03 µM.
For the compound `CN(C)c1ccc(C(=O)NCCCCCC(=O)NO)cc1`, in [2], the IC50 is 0.024 µM.
Consider `O=C(/C=C/c1ccc([N+](=O)[O-])cc1)c1ccc(NC(=O)c2ccc(CN3C(=O)c4ccccc4C3=O)cc2)cc1`, for which the half-inhibitory concentration (IC50) in the series on MCF7 [3] was found to be 9.78 µM; with HepG2 [4] it was 15.8 µM.
For `O=C(/C=C/c1ccc(Cl)cc1)c1ccc(NC(=O)c2ccc(CN3C(=O)c4ccccc4C3=O)cc2)cc1` the same measures were 4.11 µM and 3.21 µM.
For the compound `C[C@@H](O)C(=O)CCCCC[C@@H]1NC(=O)[C@H]2CCCN2C(=O)[C@H](Cc2ccccc2)NC(=O)[C@H](n2ccc3ccccc32)NC1=O`, the IC50 on Histone deacetylase 4 [1] turned out to be 0.02 µM.
Take `O=C(/C=C/c1ccccc1-c1ccco1)c1ccc(NC(=O)c2ccc(CN3C(=O)c4ccccc4C3=O)cc2)cc1`: the IC50 in the series with MCF7 [3] was 5.44 µM; with HepG2 [4], 9.05 µM.
In the case of `Cc1c[nH]c([C@@H]2NC(=O)[C@H](CCCCCC(=O)[C@H](C)O)NC(=O)[C@H]3CCCN3C(=O)[C@H](Cc3ccccc3)NC2=O)n1`, on Histone deacetylase 4 [1], it took 350 µM to reach half-maximal inhibition (IC50).
With `O=C(/C=C/c1cccc2ccccc12)c1ccc(NC(=O)c2ccc(CN3C(=O)c4ccccc4C3=O)cc2)cc1`, the IC50 in the series with MCF7 [3] turned out to be 11.3 µM; in the series on HepG2 [4], 8.07 µM.
In the case of `O=C(NCCSSCCNC(=O)/C(Cc1ccc(O)c(Br)c1)=N/O)/C(Cc1ccc(O)c(Br)c1)=N/O` [PSAMMAPLIN A], the IC50 with P388 came to 0.3 µg/mL (≈ 0.452 µM).
In turn, `CC[C@@H]1NC(=O)[C@H](CCCCCC(=O)[C@H](C)O)NC(=O)[C@H]2CCCN2C(=O)[C@H](Cc2ccccc2)NC1=O` displayed an IC50 on Histone deacetylase 4 [1] of 1 µM.
`CCC(=O)CCCCC[C@@H]1NC(=O)[C@H]2CCCCN2C(=O)[C@H]([C@@H](C)CC)NC(=O)[C@H](Cc2cc3ccccc3n2OC)NC1=O`: the IC50 with MCF10, with AGS, in the series on HepG2 [5], in the series on Hep 3B2, with Huh-7 and in the series on HA22T cell line was 0.19 µM throughout. For the same compound, the IC50 (in [6]; in the series with MCF7 [7]) was 0.19 µM each time.
Consider `CC(C)(C)OC(=O)Nc1cccc(C(=O)/C=C/c2ccc(/C=C/C(=O)NO)cc2)c1`, for which the IC50 at Histone deacetylase 1 [8] was 2.9 µM; in series [9] it was 0.01 µM. For the same compound, the “inhibition (INH)” value in the series with HT-29 is “<=60%”.
With `O=C(/C=C/c1ccccc1)c1ccc(NC(=O)c2ccc(CN3C(=O)c4ccccc4C3=O)cc2)cc1`, the IC50 turned out to be 14.4 µM with MCF7 [3] and 12.9 µM in the series with HepG2 [4].
In the series with MCF7 [3], `COc1ccc(/C=C\c2cc(OC)c(OC)c(OC)c2)cc1O` [COMBRETASTATIN A4] gave an IC50 of 4.85 µM.
Consider `CC(/C=C/C(=O)NO)=C\[C@@H](C)C(=O)c1ccc(N(C)C)cc1` [TRICHOSTATIN], for which the IC50 stood at 0.0264 µM with T47D [10], 0.0333 µM with BT-474 and 0.0277 µM in the series with MCF7 [11].
`CC[C@]1(C)NC(=O)[C@H](CCCCCC(=O)[C@@H](C)O)NC(=O)[C@H]2CC(C)(C)CN2C(=O)[C@H](Cc2ccccc2)NC1=O` registered a half-inhibitory concentration (IC50) against Histone deacetylase 4 [1] of 0.09 µM.
As to `O=C(/C=C/C1Oc2ccccc2O1)c1ccc(NC(=O)c2ccc(CN3C(=O)c4ccccc4C3=O)cc2)cc1`, the IC50 in the series with MCF7 [3] was 3.45 µM; in the series with HepG2 [4], 1.96 µM.
Consider `COc1ccc(/C=C/C(=O)c2ccc(NC(=O)c3ccc(CN4C(=O)c5ccccc5C4=O)cc3)cc2)cc1`, for which the results for the IC50 in the series with MCF7 [3] and in the series with HepG2 [4] were 2.41 µM and 1.87 µM, respectively.
On to `CCCC(=O)[O-].[Na+]` [SODIUM BUTYRATE], for which the IC50 at Histone deacetylase 1 [12] came out at 16 µM; at Histone deacetylase 2 [13], 12 µM; on Histone deacetylase 3, 9 µM; on Histone deacetylase 8 it was 15 µM; in the series on MDA-MB-231 it was 600 µM; with T47D [14], 700 µM. In addition, the IC50 turned out to be 1400 µM with BT-20 and 500 µM in the series on MCF7 [7].
On to `C[C@@H](O)C(=O)CCCCC[C@@H]1NC(=O)[C@H]2CCCN2C(=O)[C@H](Cc2ccccc2)NC(=O)[C@H](Cc2ccccc2)NC1=O`, for which the IC50 at Histone deacetylase 4 [1] is 0.28 µM.
With `COc1ccc(/C=C/C(=O)c2ccc(NC(=O)c3ccc(CN4C(=O)c5ccccc5C4=O)cc3)cc2)c(OC)c1`, the IC50 in the series with MCF7 [3] stood at 2.09 µM; in the series with HepG2 [4], 1.75 µM.
Regarding `O=C(CCCCCNC(=O)c1cc2ccccc2[nH]1)NO`, half-maximal inhibition in [2] (IC50) was put at 0.014 µM.
In the case of `Cc1cc(/C=C/C(=O)c2ccc(NC(=O)c3ccc(CN4C(=O)c5ccccc5C4=O)cc3)cc2)cc(C)c1C`, the IC50 on Tubulin beta is 2.32 µM; against Histone deacetylase 1 [15], 0.22 µM; against Histone deacetylase 2 [16], 0.43 µM; with MCF7 [3], 1.88 µM; with HepG2 [4], 1.62 µM.
Regarding `CCCC(CCC)C(=O)O` [VALPROIC ACID], the IC50 worked out at 400 µM on Histone deacetylase 1 [17]; 1000 µM against Histone deacetylase 4 [19]; 1000 µM against Histone deacetylase 5; 1000 µM in series [20]; 230 µM in the series with MCF7 [7]. The t1/2 in series [18] amounted to 7 h.
In turn, `CC[C@]1(C)NC(=O)[C@H](CCCCCC(=O)[C@@H](C)O)NC(=O)[C@H]2CCCN2C(=O)[C@H](Cc2ccccc2)NC1=O` registered an IC50 on Histone deacetylase 4 [1] of 0.05 µM.
`C[C@H](O)C(=O)CCCCC[C@@H]1NC(=O)[C@H]2CCCN2C(=O)[C@H](Cc2ccccc2)NC(=O)C(C2CCCCC2)(C2CCCCC2)NC1=O` had an IC50 against Histone deacetylase 4 [1] of 0.67 µM.
`C[C@H](O)C(=O)CCCCC[C@@H]1NC(=O)[C@H]2CCCN2C(=O)[C@H](Cc2ccccc2)NC(=O)C(C)(C)NC1=O`: the midpoint of inhibition against Histone deacetylase 4 [1], the IC50, lay at 0.33 µM.
In the case of `O=C(/C=C/c1cc2ccc1CCc1ccc(cc1)CC2)c1ccc(NC(=O)c2ccc(CN3C(=O)c4ccccc4C3=O)cc2)cc1`, the figures for the IC50 with MCF7 [3] and in the series with HepG2 [4] were 5.28 µM and 8.47 µM, respectively.
